Source: publication PMC7157241, “Phenotypic Drug Discovery for Human African Trypanosomiasis: A Powerful Approach” (Tropical Medicine and Infectious Disease, 2020)
Read-outs that look alike come from different tables or passages of the source.

How the values were obtained:
[1] = system: T. brucei brucei (strain BF427); test: In vitro parasite growth arrest assay (AlamarBlue); format: cell-based, Trypanosoma brucei brucei
Protocol: Follow up compounds were tested for antiparasitic activity on T. brucei brucei (strain BF427). Parasites were tested in triplicate in the presence of serial dilutions of compound, and growth was quantified with AlamarBlue.

[2] = Brain permeability studies in mice (brain to plasma ratio); format: in vivo, mouse; conditions: for Kp at 1 h / Kp at 60 min: 5 mg/kg, mouse; for Kp at 60 min: read-out: B/P Ratio (Mouse)
Protocol: Test compounds were injected (ip) at 5 mg/kg to three mice in a vehicle consisting of DMSO (5%), Tween 80 (7%), and EtOH (3%) in physiological saline (0.9%) solution [8]. At 1 h post injection, blood was collected, and plasma was separated by centrifugation. Simultaneously, the brain was removed and homogenized in acetonitrile. Concentrations of compound in the plasma and brain were determined via liquid chromatography/tandem mass spectrometry. Calculations of brain levels accounted for 3% volume/weight of blood in the brain.
The long-term goal of the project was to develop a drug for treatment of HAT including late-stage disease involving the central nervous system. […] To assess this, the sixteen hit compounds were injected […] and mice were sacrificed at 60 min (n = 3 mice) for the simultaneous collection of plasma and whole brains for the quantification of compound concentrations. Eleven compounds (1–10, 12) had brain levels of at least 25% of plasma levels and were considered candidates for development. One compound (11) had modest brain permeability of 9%, but was included for further chemistry despite this marginal activity. Four compounds (13–15, 17) had minimal concentrations in the brain (< 2% of plasma levels) and were no longer pursued.

[3] = system: T. brucei rhodesiense STIB 900 strain; conditions: acute infection model; cited from earlier work
[4] = system: T. b. brucei (strain TREU667); test: Anti-parasite efficacy in mice (chronic model); format: in vivo, mouse; conditions: chronic infection model (unpublished)
Protocol: Groups of six to eight mice were infected with 1 × 10^4 T. b. brucei (strain TREU667) to establish a chronic infection. Treatment began on day 21 post-infection, and mice received 50 mg/kg test compound orally twice per day for 10 days (total of 20 doses) in a 200 μL volume of vehicle. A control group received the vehicle with no compound and another control group received a single intraperitoneal dose of diminazene aceturate at 10 mg/kg on day 21. […] After dosing, parasitemia was monitored via microscopic examination of tail blood slides until 180 days post-infection. Mice were removed from the experiment when parasites were detected in the blood.

[5] = Mammalian cell cytotoxicity assay (AlamarBlue, 48 h); format: cell-based; conditions: human
Protocol: Compounds were tested for cytotoxicity against CRL-8155 cells (human lymphoblasts). Cells were grown in culture with serial dilutions of compounds for 48 h and cytotoxicity was assayed using AlamarBlue (Life Technologies, Carlsbad, California CA, USA).

[6] = Mouse liver microsome stability; conditions: for half-life: mouse, liver microsomes
[7] = Single dose oral pharmacokinetic study in mice; format: in vivo; conditions: mouse, oral gavage 50 mg/kg
Protocol: Test compounds were administered to mice by oral gavage followed by blood sampling at intervals of 30, 60, 120, 240, 360, 480, and 1440 min [5, 7]. Compounds were dosed orally at 50 mg/kg in 0.2 mL of dosing solution (7% Tween 80, 3% ethanol, 5% DMSO, 0.9% saline). Experiments were performed with groups of three mice per compound as published. Plasma was separated and extracted with acetonitrile for measurements of the compound concentrations by liquid chromatography/tandem mass spectrometry.
New compounds had T. brucei EC50, mammalian host cell cytotoxicity (CC50), and aqueous solubility assayed per our screening cascade (Figure 2). The cut-off values for further advancement are shown. […] The screening results were continuously reviewed by the chemistry group to define structure activity relationships (SAR). […] Mice were administered compounds by oral gavage at 50 mg/kg and whole blood samples were collected on blotting cards at serial time points. The parameters of maximum blood concentration (Cmax) and the concentration of compound integrated over time (area under curve, AUC) were of primary interest. The general rule was to attain plasma concentrations 10 times above the T. brucei EC50 value for at least eight hours. […]

[8] = Human microsome stability; format: in vitro ADME; conditions: microsomes, Figure 3, read-out: Human microsome t½
[9] = microsomes
[10] = Brain permeability studies in mice (brain to plasma ratio); format: in vivo; conditions: mouse, 5 mg/kg
[11] = system: T. b. brucei (strain TREU667); design: method as in PMID 27992217; conditions: cited from earlier work
[12] = Trypanosoma brucei, Figures 4 and 5, read-out: T. brucei EC50
[13] = Trypanosoma brucei, Figure 3, Scaffold 1 optimization, read-out: T. brucei EC50
[14] = brain and plasma, intraperitoneal, Figure 3, read-out: Brain:Plasma
[15] = CRL-8155 cells (lymphoblasts), Figure 3, Scaffold 1 optimization, read-out: CC50
[16] = Trypanosoma brucei, selected hit compounds, Table 1, read-out: T. brucei EC50
[17] = in vivo, brain to plasma ratio at 60 min following IP dose
[18] = lymphocytic cell line CRL-8155, read-out: Mammalian CC50
[19] = in vivo, Figures 4 and 5, read-out: Brain:Plasma ratio
[20] = brain and plasma, brain to plasma ratio at 60 min following IP dose
[21] = CRL-8155 cells (lymphoblasts), lymphocytic cell line CRL-8155, read-out: Mammalian CC50

COc1cc(N2C(=O)CN(Cc3ccc(F)cc3Cl)C2=S)ccc1N(C)C [BA-738]
EC50 [1, 12]: 0.0019 µM
Kp at 1 h ([2]; brain and plasma, intraperitoneal, Figures 4 and 5, read-out: Brain:Plasma ratio): 1.68
outcome in acute T. brucei infection in mice [3]: cured mice
cures in the chronic infection model [4]: 20 % of mice
CC50 at 48 h ([5]; CRL-8155 cells (lymphoblasts), Figure 5, read-out: Mammalian cell CC50): > 50 µM
Mouse liver microsome t½ ([6]; Figures 4 and 5): 660 s

O=C(Nc1ccc(F)c(-c2nc3cc(-c4ccccc4)cnc3[nH]2)c1)N1CCCC1 [HB-175]
EC50 [1, 13]: 0.004 µM
Kp at 1 h [2, 14]: 0.04
AUC [7]: 1236 µmol·min

Cc1nc(C)c(C(=O)Nc2ccc(F)c(-c3nc4ncc(-c5ccccc5Cl)cn4n3)c2)o1 [PN-302]
Kp at 1 h [2, 14]: 0.23
CC50 at 48 h [5, 15]: > 50 µM
AUC [7]: 55901 µmol·min
half-life [6]: > 5400 s
half-life [8]: > 1.5 h

N=C(N)c1ccc(OCCCCCOc2ccc(C(=N)N)cc2)cc1 [Pentamidine isothionate, reference compound]
EC50 ([1]; positive control included in each assay, read-out: EC50 of positive control): 0.0012 ± 0.0003 µM

O=C(Nc1ccc(Cl)c(-c2nc3ncccc3o2)c1)c1ccco1 [Scaffold 1]
EC50 [1, 13]: 0.22 µM
EC50 [1, 16]: 0.218 µM
Kp at 60 min [2, 17]: 0.547
CC50 at 48 h ([5]; Figure 3, Scaffold 1 optimization, read-out: CC50): 50 µM
CC50 at 48 h [5, 18]: > 50 µM
Mouse microsome t½ [9]: 48 s

O=C(NCCc1nc(-c2ccccc2)cs1)c1ccccc1 [Scaffold 2]
Kp at 1 h [2, 19]: 0.3
Kp at 60 min [2, 17]: 0.3
CC50 at 48 h [5, 18]: > 50 µM

O=c1c2ccccc2nc(SCc2cccnc2)n1Cc1ccco1 [Scaffold 3]
EC50 [1, 16]: 0.874 µM
Kp at 60 min [2, 20]: 2.86
CC50 at 48 h [5, 21]: 38 µM

Cc1nn2c(NCCCO)c3c(nc2c1-c1cccs1)CCC3 [Scaffold 6]
EC50 [1, 16]: 0.307 µM
Kp at 60 min [2, 20]: 0.727
CC50 at 48 h [5, 21]: > 100 µM

COc1ccc(-n2nc(C(=O)NCC(=O)N3CCCC(C)C3)c3ccccc3c2=O)cc1Cl (stereo not shown) [Scaffold 7]
EC50 [1, 16]: 0.657 µM
Kp at 60 min [2, 20]: 0.587
CC50 at 48 h [5, 21]: > 50 µM

Fc1ccccc1C1C=C(c2cccnc2)Nc2nnnn21 (stereo not shown) [Scaffold 8]
EC50 [1, 16]: 0.214 µM
CC50 at 48 h [5]: 14.3 µM
Kp at 15 min ([10]; in vivo, brain to plasma ratio at 15 min following IP dose (Scaffold 8), read-out: B/P Ratio (Mouse)): 7.11

CCn1cc(CN2CCCC(C(=O)Nc3ccc(-c4nc5ccccc5[nH]4)cc3)C2)cn1 (stereo not shown) [Scaffold 10]
EC50 [1, 16]: 2.44 µM
Kp at 60 min [2, 20]: 0.224

O=c1nc(/C=C/c2cn(Cc3ccccc3F)c3ccccc23)cc(C(F)(F)F)[nH]1 [Scaffold 11]
EC50 [1, 16]: 3.09 µM
Kp at 60 min [2, 20]: 0.09
Kp at 60 min ([10]; brain and plasma, intraperitoneal, mice sacrificed at 60 min, n = 3, read-out: brain levels as percent of plasma levels): 0.09

COc1ccc(CNC(=O)CN(c2cccc(C)c2C)S(=O)(=O)c2ccccc2)cc1 [Scaffold 12]
EC50 [1, 16]: 1.7 µM
Kp at 60 min [2, 20]: 0.267
CC50 at 48 h [5, 21]: > 100 µM

Cc1cc(C)c(NC(=O)c2cc(S(=O)(=O)N3CCOCC3)cn2C)c(C)c1 [Scaffold 13]
EC50 [1, 16]: 1 µM
Kp at 60 min [2, 20]: 0.02
CC50 at 48 h [5, 21]: > 100 µM

COCCN1C(=O)c2ccccc2C(C(=O)Nc2ccc(Oc3ccccc3)cc2)C1c1ccc(F)cc1 (stereo not shown) [Scaffold 14]
EC50 [1, 16]: 0.708 µM
Kp at 60 min [2, 20]: 0.01
CC50 at 48 h [5, 21]: > 100 µM

COc1cccc(C2N(c3ccccc3)N=C(C(C)=O)N2c2ccc(C)c(C)c2)c1OCc1ccccc1 (stereo not shown) [Scaffold 15]
EC50 [1, 16]: 1.5 µM
Kp at 60 min [2, 20]: 0
CC50 at 48 h [5, 21]: 33 µM

O=C(CSc1nc2scc(-c3ccccc3)c2c(=O)n1-c1ccccc1)Nc1ccccc1F [Scaffold 16]
EC50 [1, 16]: 0.65 µM
plasma and brain levels ([2]; 60-min time point): nearly undetectable plasma and brain levels
B/P Ratio (Mouse) ([2]; brain to plasma ratio at 60 min following IP dose): No plasma exposure
CC50 at 48 h [5, 21]: > 100 µM

COc1ccc(-c2c(C#N)c(SCc3ccccc3)nc(C)c2C(=O)Nc2ccccc2)cc1 [Scaffold 17]
EC50 [1, 16]: 3.5 µM
Kp at 60 min [2, 20]: 0
CC50 at 48 h [5, 21]: > 100 µM

O=C(Nc1ccc2sc(-c3ccc(F)c(F)c3)nc2c1)N1CC[C@H](F)C1 [Scaffold 45DAP076]
activity in the chronic T. brucei infection model [11]: curative activity
EC50 [1, 12]: 0.035 µM
Kp at 1 h [2, 19]: 4
half-life [6]: > 3600 s

O=C(Nc1ccc(F)c(-c2nc3ncccc3o2)c1)c1ccco1 [Site I: F]
EC50 [1, 13]: 0.08 µM
CC50 at 48 h [5, 15]: 99.7 µM
half-life [6]: 42 s

O=C(Nc1ccc(Cl)c(-c2nc3ncccc3o2)c1)N1CCCC1 [Site II: pyrrolidine]
EC50 [1, 13]: 0.08 µM
CC50 at 48 h [5, 15]: 73 µM
half-life [6]: 48 s

O=C(Nc1ccc(Cl)c(-c2nc3cc(Br)cnc3[nH]2)c1)c1ccco1 [Site III: as shown]
EC50 [1, 13]: 0.05 µM
CC50 at 48 h [5, 15]: 200 µM
half-life [6]: 48 s

O=C(c1ccco1)N(C(=O)c1ccco1)c1ccc(Cl)c(-c2nc3ncccc3o2)c1 [Site V: as shown]
EC50 [1, 13]: 0.1 µM
CC50 at 48 h [5, 15]: 86 µM
half-life [6]: 42 s
